This assay concerns HBV. In words: HBV replication inhibition assay (BDNA assay) in HepG2.2.15 cells. The assay is classed as cell-based. To be noted: Hepatitis B virus, HepG2.2.15, 144 h, read-out: HepG2.2.15 EC50 HBV DNA. Here is the method:
HBV replication inhibition by the disclosed compounds were determined in cells infected or transfected with HBV or cells with stably integrated HBV, such as HepG2.2.15 cells (Sells et al. 1987). In this example, HepG2.2.15 cells were maintained in cell culture medium containing 10% fetal bovine serum (FBS), Geneticin, L-glutamine, penicillin and streptomycin. HepG2.2.15 cells were seeded in 96-well plates at a density of 40,000 cells/well and were treated with serially diluted compounds at a final DMSO concentration of 0.5% either alone or in combination by adding drugs in a checker box format. Cells were incubated with compounds for three days, after which medium was removed and fresh medium containing compounds was added to cells and incubated for another three days. At day 6, supernatant was removed and treated with DNase at 37° C. for 60 minutes, followed by enzyme inactivation at 75° C. for 15 minutes. Encapsidated HBV DNA was released from the virions and covalently linked HBV polymerase by incubating in lysis buffer (Affymetrix QS0010) containing 2.5 μg proteinase K at 50° C. for 40 minutes. HBV DNA was denatured by addition of 0.2 M NaOH and detected using a branched DNA (BDNA) QuantiGene assay kit according to manufacturer recommendation (Affymetrix). HBV DNA levels were also quantified using qPCR, based on amplification of encapsidated HBV DNA extraction with QuickExtraction Solution (Epicentre Biotechnologies) and amplification of HBV DNA using HBV specific PCR probes that can hybridize to HBV DNA and a fluorescently labeled probe for quantitation. In addition, cell viability of HepG2.2.15 cells incubated with test compounds alone or in combination was determined by using CellTitre-Glo reagent according to the manufacturer protocol (Promega). The mean background signal from wells containing only culture medium was subtracted from all other samples, and percent inhibition at each compound concentration was calculated by normalizing to signals from HepG2.2.15 cells treated with 0.5% DMSO using equation E1.
% inhibition=(DMSOave−Xi)/DMSOave×100% E1
where DMSOave is the mean signal calculated from the wells that were treated with DMSO control (0% inhibition control) and Xi is the signal measured from the individual wells. EC50 values, effective concentrations that achieved 50% inhibitory effect, were determined by non-linear fitting using Graphpad Prism software (San Diego, Calif.) and equation E2.
Y=Ymin+(Ymax−Ymin)/(1+10(Log EC50−X)×HillSlope) E2
where Y represents percent inhibition values and X represents the logarithm of compound concentrations.
Selected disclosed compounds were assayed in the HBV replication assay (BDNA assay), as described above, and a representative group of these active compounds is shown in Table 3.

Where [1] appears, read: HepG2.2.15 cells, BDNA assay, encapsidated HBV DNA in supernatant at day 6.

SMILES strings stand for the structures. pEC50: −log10 of the molar value. Read-outs that look alike come from different tables or passages of the source.

A word on the pEC50: it is the EC50 on a negative log10 scale, so that one unit is a factor of ten. In the case of `N#Cc1cc(NC(=O)N2CCc3nn4c(c3C2)C(F)(F)CC[C@H](O)C4)ccc1F` [Example 3, (S)-N-(3-Cyano-4-fluorophenyl)-11,11-difluoro-8-hydroxy-3,4,8,9,10,11-hexahydro-1H-pyrido[4′,3′:3,4]pyrazolo[1,5-a]azepine-2(7H)-carboxamide], the negative-log EC50 (pEC50) under setting [1] is 7.66.

For the molecule `O=C(Nc1ccc(F)c(C(F)(F)F)c1)N1CCc2nn3c(c2C1)C(F)(F)CC[C@H](O)C3` [Example 4, (S)-11,11-Difluoro-N-(4-fluoro-3-(trifluoromethyl)phenyl)-8-hydroxy-3,4,8,9,10,11-hexahydro-1H-pyrido[4′,3′:3,4]pyrazolo[1,5-a]azepine-2(7H)-carboxamide], under setting [1], the pEC50 was 7.43.

Turning to `O=C(Nc1ccnc(Br)c1F)N1CCc2nn3c(c2C1)C(F)(F)CC[C@H](O)C3` [Example 5, (S)-N-(2-Bromo-3-fluoropyridin-4-yl)-11,11-difluoro-8-hydroxy-3,4,8,9,10,11-hexahydro-1H-pyrido[4′,3′:3,4]pyrazolo[1,5-a]azepine-2(7H)-carboxamide], the pEC50 under setting [1] was 7.24.

For the molecule `N#Cc1c(F)ccc(NC(=O)N2CCc3nn4c(c3C2)C(F)(F)CC[C@H](O)C4)c1F` [Example 6, (S)-N-(3-Cyano-2,4-difluorophenyl)-11,11-difluoro-8-hydroxy-3,4,8,9,10,11-hexahydro-1H-pyrido[4′,3′:3,4]pyrazolo[1,5-a]azepine-2(7H)-carboxamide], the negative-log EC50 (pEC50) under setting [1] is 7.36.

With `O=C(Nc1ccc(F)c(Br)c1F)N1CCc2nn3c(c2C1)C(F)(F)CC[C@H](O)C3` [Example 7, (S)-N-(3-Bromo-2,4-difluorophenyl)-11,11-difluoro-8-hydroxy-3,4,8,9,10,11-hexahydro-1H-pyrido[4′,3′:3,4]pyrazolo[1,5-a]azepine-2(7H)-carboxamide], the pEC50 under setting [1] is 7.51.

With `N#Cc1cc(NC(=O)N2CCc3nn4c(c3C2)C(F)(F)CC[C@@H](O)C4)ccc1F` [Example 8, (R)-N-(3-Cyano-4-fluorophenyl)-11,11-difluoro-8-hydroxy-3,4,8,9,10,11-hexahydro-1H-pyrido[4′,3′:3,4]pyrazolo[1,5-a]azepine-2(7H)-carboxamide], the pEC50 under setting [1] is 8.00.

With `O=C(Nc1ccc(F)c(C(F)(F)F)c1)N1CCc2nn3c(c2C1)C(F)(F)CC[C@@H](O)C3` [Example 9, (R)-11,11-Difluoro-N-(4-fluoro-3-(trifluoromethyl)phenyl)-8-hydroxy-3,4,8,9,10,11-hexahydro-1H-pyrido[4′,3′:3,4]pyrazolo[1,5-a]azepine-2(7H)-carboxamide], under setting [1], the negative-log EC50 (pEC50) was 7.55.

As for `O=C(Nc1ccnc(Br)c1F)N1CCc2nn3c(c2C1)C(F)(F)CC[C@@H](O)C3` [Example 10, (R)-N-(2-Bromo-3-fluoropyridin-4-yl)-11,11-difluoro-8-hydroxy-3,4,8,9,10,11-hexahydro-1H-pyrido[4′,3′:3,4]pyrazolo[1,5-a]azepine-2(7H)-carboxamide], under setting [1], the pEC50 was 7.49.

On to `N#Cc1c(F)ccc(NC(=O)N2CCc3nn4c(c3C2)C(F)(F)CC[C@@H](O)C4)c1F` [Example 11, (R)-N-(3-Cyano-2,4-difluorophenyl)-11,11-difluoro-8-hydroxy-3,4,8,9,10,11-hexahydro-1H-pyrido[4′,3′:3,4]pyrazolo[1,5-a]azepine-2(7H)-carboxamide], for which, under setting [1], the pEC50 is 7.62.

With `O=C(Nc1ccc(F)c(Br)c1F)N1CCc2nn3c(c2C1)C(F)(F)CC[C@@H](O)C3` [Example 12, (R)-N-(3-Bromo-2,4-difluorophenyl)-11,11-difluoro-8-hydroxy-3,4,8,9,10,11-hexahydro-1H-pyrido[4′,3′:3,4]pyrazolo[1,5-a]azepine-2(7H)-carboxamide], under setting [1], the pEC50 was 7.72.

For the molecule `N#Cc1cc(NC(=O)N2CCc3nn4c(c3C2)C(F)(F)CC[C@H](OCC(F)F)C4)ccc1F` [Example 13, (S)-N-(3-Cyano-4-fluorophenyl)-8-(2,2-difluoroethoxy)-11,11-difluoro-3,4,8,9,10,11-hexahydro-1H-pyrido[4′,3′:3,4]pyrazolo[1,5-a]azepine-2(7H)-carboxamide], the negative logarithm of the EC50 (pEC50) under setting [1] is 7.38.

In the case of `N#Cc1cc(NC(=O)N2CCc3nn4c(c3C2)C(F)(F)CC[C@@H](OCC(F)F)C4)ccc1F` [Example 14, (R)-N-(3-Cyano-4-fluorophenyl)-8-(2,2-difluoroethoxy)-11,11-difluoro-3,4,8,9,10,11-hexahydro-1H-pyrido[4′,3′:3,4]pyrazolo[1,5-a]azepine-2(7H)-carboxamide], the negative-log EC50 (pEC50) under setting [1] is 7.29.

Consider `N#Cc1cc(NC(=O)N2CCc3nn4c(c3C2)C(F)(F)CCC(O)(CF)C4)ccc1F` (centres unmarked) [Example 37, N-(3-Cyano-4-fluorophenyl)-11,11-difluoro-8-(fluoromethyl)-8-hydroxy-3,4,8,9,10,11-hexahydro-1H-pyrido[4′,3′:3,4]pyrazolo[1,5-a]azepine-2(7H)-carboxamide], for which the negative logarithm of the EC50 (pEC50) under setting [1] was 7.82.

For the molecule `N#CCC1(O)CCC(F)(F)c2c3c(nn2C1)CCN(C(=O)Nc1ccc(F)c(C#N)c1)C3` (centres unmarked) [Example 40, N-(3-Cyano-4-fluorophenyl)-8-(cyanomethyl)-11,11-difluoro-8-hydroxy-3,4,8,9,10,11-hexahydro-1H-pyrido[4′,3′:3,4]pyrazolo[1,5-a]azepine-2(7H)-carboxamide], the negative-log EC50 (pEC50) under setting [1] was 7.89.

Turning to `N#Cc1cc(NC(=O)N2CCc3nn4c(c3C2)C(F)(F)CCC(F)(CO)C4)ccc1F` (centres unmarked) [Example 45, N-(3-Cyano-4-fluorophenyl)-8,11,11-trifluoro-8-(hydroxymethyl)-3,4,8,9,10,11-hexahydro-1H-pyrido[4′,3′:3,4]pyrazolo[1,5-a]azepine-2(7H)-carboxamide], under setting [1], the negative-log EC50 (pEC50) is 8.30.

`O=C(Nc1ccnc(Br)c1F)N1CCc2nn3c(c2C1)C(F)(F)CCC(F)(CO)C3` (centres unmarked) [Example 46, N-(2-Bromo-3-fluoropyridin-4-yl)-8,11,11-trifluoro-8-(hydroxymethyl)-3,4,8,9,10,11-hexahydro-1H-pyrido[4′,3′:3,4]pyrazolo[1,5-a]azepine-2(7H)-carboxamide]: under setting [1], the negative-log EC50 (pEC50) is 7.92.

On to `CC(=O)NCC1CCC(F)(F)c2c3c(nn2C1)CCN(C(=O)Nc1ccc(F)c(C#N)c1)C3` (centres unmarked) [Example 49], for which the negative logarithm of the EC50 (pEC50) under setting [1] was 7.48.

Consider `CC(=O)NCC1CCC(F)(F)c2c3c(nn2C1)CCN(C(=O)Nc1ccnc(Br)c1F)C3` (centres unmarked) [Example 50, 8-(Acetamidomethyl)-N-(2-bromo-3-fluoropyridin-4-yl)-11,11-difluoro-3,4,8,9,10,11-hexahydro-1H-pyrido[4′,3′:3,4]pyrazolo[1,5-a]azepine-2(7H)-carboxamide], for which, under setting [1], the pEC50 is 6.96.

As to `N#Cc1cc(NC(=O)N2CCc3nn4c(c3C2)C(F)(F)CCC(CNC(=O)C(F)(F)F)C4)ccc1F` (centres unmarked) [Example 51, N-(3-Cyano-4-fluorophenyl)-11,11-difluoro-8-((2,2,2-trifluoroacetamido)methyl)-3,4,8,9,10,11-hexahydro-1H-pyrido[4′,3′:3,4]pyrazolo[1,5-a]azepine-2(7H)-carboxamide], the pEC50 was 7.49.

As to `O=C(Nc1ccnc(Br)c1F)N1CCc2nn3c(c2C1)C(F)(F)CCC(CNC(=O)C(F)(F)F)C3` (centres unmarked) [Example 52, N-(2-Bromo-3-fluoropyridin-4-yl)-11,11-difluoro-8-((2,2,2-trifluoroacetamido)methyl)-3,4,8,9,10,11-hexahydro-1H-pyrido[4′,3′:3,4]pyrazolo[1,5-a]azepine-2(7H)-carboxamide], the negative logarithm of the EC50 (pEC50) was 6.99.

The record behind these values is patent US20220235051A1, “DI-FLUORO AZEPANES AS HBV CAPSID ASSEMBLY MODULATORS” (priority 2019, published 2022).
